Measured values as given in patent publication US8496913B2, “Compressed chewing gum tablet” (Gumlink A/S, priority 2005, dated 2013).

Tested on: plaque
Details: in vivo

With `CC(=O)[O-].CC(=O)[O-].[Zn+2]` [zinc acetate] the “effect on plaque in hard-to-reach places” value was “with high efficiency”.
